Results reported in patent publication US10487087B2, “Positive allosteric modulators of the GLP-1 receptor” (Vanderbilt University, priority 2015, dated 2019).

Tests used:
Type in all cases: cell-based
human GLP-1R [1] = target: T1, human GLP-1R (Homo sapiens (Human), UniProt P43220); experiment: GLP-1 assay with EX-4 synthetic agonist (calcium mobilization, EC20 EX-4); conditions: calcium flux; for Emax at 30 µM: 30 μM compound, EC20 of EX-4; for EC50: potentiation of EC20 EX-4, read-out: GLP1 EC50 (Ex-4 synthetic agonist)
T1 sequence (P43220 24-463): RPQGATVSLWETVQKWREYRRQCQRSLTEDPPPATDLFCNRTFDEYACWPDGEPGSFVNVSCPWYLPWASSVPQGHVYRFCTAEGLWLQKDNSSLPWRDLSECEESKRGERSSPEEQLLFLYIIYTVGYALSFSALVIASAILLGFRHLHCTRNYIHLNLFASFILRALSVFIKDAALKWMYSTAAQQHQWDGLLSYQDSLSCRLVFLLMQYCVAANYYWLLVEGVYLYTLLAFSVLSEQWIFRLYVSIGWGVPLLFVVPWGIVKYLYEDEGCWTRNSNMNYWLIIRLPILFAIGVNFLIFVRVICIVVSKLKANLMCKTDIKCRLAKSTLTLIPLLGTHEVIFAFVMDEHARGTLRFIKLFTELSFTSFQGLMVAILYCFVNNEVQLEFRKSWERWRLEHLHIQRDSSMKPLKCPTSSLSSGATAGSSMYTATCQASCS
Description: B. GLP-1 Assay with EX-4 Synthetic Agonist
(§1) To assess the effects of test compounds on GLP-1 or glucagon potency and efficacy, a high-throughput calcium mobilization assay was used essentially as previously described (Morris L C, Days E L, Turney M, Mi D, Lindsley C W, Weaver C D, Niswender K D, A Duplexed High-Throughput Screen to Identify Allosteric Modulators of the Glucagon-Like Peptide 1 and Glucagon Receptors. J. Biomol. Screen. 2014 Feb. 13, 19(6):847-858). Briefly, human GLP-1R or Glucagon Receptor 9-3-H cells over-expressing a promiscuous G-protein (Millipore, Billerica, Mass.) were plated at 15,000 cells/well in black-walled 384-well plates (Greiner Bio-one, Monroe, N.C.) in Dulbecco's Modified Eagles Medium (DMEM) with 10% FCS, 4.0 mM L-glutamine, 1× non-essential amino acids (NEAAs), and 10.0 mM HEPES without antibiotics. After overnight attachment, cells were washed twice with assay buffer (HBSS supplemented with 20 mM HEPES and 1.0 mM probenecid) using an EL×405CW cell washer (Bio-Tek, Winooski, Vt.) and then loaded with the calcium sensitive dye fluo-4 AM (Invitrogen, Grand Island, N.Y.) at a final concentration of 2.0 μM in assay buffer. After a 45-minute incubation at room temperature, the dye was removed by washing, leaving 20 μL of assay buffer. Next, the cell plate was introduced alongside a 384-well compound plate containing 0.1% final DMSO control wells and 11-point concentration response curves of putative GLP-1 PAMs created using a non-pipet based liquid transfer instrument, ECH0555 (Labcyte, Sunnyvale, Calif.). After a 20 μL compound addition to the appropriate wells, kinetic fluorescent measurements were collected for 2 minutes using an FDSS6000 (Hamamatsu, Bridgewater, N.J.) with 488 nm excitation and 480/540 emission filters. After 2 minutes, 10 μL of an EC20 concentration of EX-4 (Phoenix Pharmaceuticals, Burlingame, Calif.), Glucagon (Phoenix Pharmaceuticals, Burlingame, Calif.) Exendin-4 (Tocris Bioscience, Bristol, UK), or Liraglutide (Victoza™, Novo-Nordisk, Denmark) was added and fluorescence was monitored for an additional 2 minutes to observe potentiation of the calcium flux signal. […] Recombinant peptides were reconstituted into assay buffer supplemented with 0.1% fatty acid free BSA (Sigma #A6003) and diluted into borosilicate glass tubes to maximize peptide recovery (Goebel-Stengel M, Stengel A, Taché Y, Reeve J R Jr., The importance of using the optimal plasticware and glassware in studies involving peptides. Anal. Biochem. 2011 Jul. 1, 414(1):38-46).
(§2) Data is from a single experiment unless otherwise noted. Data that is an average of two experiments is noted as “n=2” while data that is an average of three or more experiments is presented as the average plus or minus the standard error of the mean.

human GLP-1R [2] = target: T1, human GLP-1R; experiment: GLP-1 assay with GLP1 endogenous agonist (calcium mobilization, EC20 GLP-1 peptide 7-36 amide); conditions: calcium flux; for Emax at 30 µM: 30 μM compound, EC20 of GLP-1 7-36 amide; for EC50: potentiation of EC20 GLP-1 7-36 amide
Description: A. GLP-1 Assay with GLP1 Endogenous Agonist
as §1, with “L-glutamine,” for “L-glutamine, 1×”, “ELx405CW” for “EL×405CW”, “GLP-1 peptide 7-36 amide” for “EX-4”, “Tache” for “Taché”
as §2

human GLP-1R [3] = target: T1, human GLP-1R; experiment: GLP-1 concentration response curves in the presence of fixed concentrations of PAM (GLP-1 induced calcium flux); conditions: 0 μM, 3 μM, 10 μM, 30 μM of compound; FIGS. 2A and 2B
Description: FIGS. 2A and 2B show a series of GLP-1 concentration response curves in the presence of fixed concentrations of an exemplary positive allosteric modulator (Compound 1).

Compound	Emax at 30 µM (human GLP-1R [1])	EC50 (human GLP-1R [1])	Emax at 30 µM (human GLP-1R [2])	EC50 (human GLP-1R [2])	shift of GLP-1 concentration response curves / GLP-1 EC50 (human GLP-1R [3])
Cc1c2ccccc2n2c(C(=O)NC[C@@H]3CCCN3C(C)C)cn(C3CCCC3)c(=O)c12 [Compound 1, (S)-2-Cyclopentyl-N-((1-isopropylpyrrolidin-2-yl)methyl)-10-methyl-1-oxo-1,2-dihydropyrazino[1,2-a]indole-4-carboxamide]	59%	4.6 µM	57%	2.7 µM	leftward shift in the GLP-1 concentration response curves
Cc1c2n(c3ccccc13)[C@H](C(=O)NC[C@@H]1CCCN1C(C)C)CN(C1CCCC1)C2=O [Compound 9, (S)-2-cyclopentyl-N-(((S)-1-isopropylpyrrolidin-2-yl)methyl)-10-methyl-1-oxo-1,2,3,4-tetrahydropyrazino[1,2-a]indole-4-carboxamide]	33%	> 30 µM	40%	> 30 µM	–
CC(C)N1CCC[C@@H]1CNC(=O)c1cn(C2CCCC2)c(=O)c2c(Cl)c3ccccc3n12 [Compound 11, (R)-10-chloro-2-cyclopentyl-N-((1-isopropylpyrrolidin-2-yl)methyl)-1-oxo-1,2-dihydropyrazino[1,2-a]indole-4-carboxamide]	–	> 30 µM	44%	> 30 µM	–
CC(C)N1CCC[C@@H]1CNC(=O)c1cn(C2CCCC2)c(=O)c2c(Br)c3ccccc3n12 [Compound 13, (R)-10-bromo-2-cyclopentyl-N-((1-isopropylpyrrolidin-2-yl)methyl)-1-oxo-1,2-dihydropyrazino[1,2-a]indole-4-carboxamide]	–	> 30 µM	39%	> 30 µM	–

Stronger by EC50 (human GLP-1R [1]), values ahead:

Emax at 30 µM (human GLP-1R [1])	EC50 (human GLP-1R [1])	Emax at 30 µM (human GLP-1R [2])	EC50 (human GLP-1R [2])	Compound	shift of GLP-1 concentration response curves / GLP-1 EC50 (human GLP-1R [3])
57%	1.5 µM	61%	1.3 µM	CC(C)N1CCC[C@H]1CNC(=O)c1cn(C2CCCC2)c(=O)c2c(Cl)c3ccccc3n12 [Compound 10, (S)-10-chloro-2-cyclopentyl-N-((1-isopropylpyrrolidin-2-yl)methyl)-1-oxo-1,2-dihydropyrazino[1,2-a]indole-4-carboxamide]	–
59%	3.6 µM	53%	2.2 µM	CC(C)N1CCC[C@H]1CNC(=O)c1cn(C2CCCC2)c(=O)c2c(Br)c3ccccc3n12 [Compound 12, (S)-10-bromo-2-cyclopentyl-N-((1-isopropylpyrrolidin-2-yl)methyl)-1-oxo-1,2-dihydropyrazino[1,2-a]indole-4-carboxamide]	–
